Assay results taken from PubChem BioAssay AID1845194 (Molecular Pharmacology Branch, DTP, NCI, 2023).

Test system: 287954-098-R-J1 tumor spheroid viability
Assay: Anticancer human tumor 287954-098-R-J1 patient-derived Ewing sarcoma cell line growth inhibition
Details: spheroids with HUVEC and MSC; for IC50: curve of first compound; for viability, T/C: stronger effect = lower value
Procedure, shortened: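 Complex spheroids of malignant cells with endothelial cells and mesenchymal stem cells; agents alone or combined, from near clinical Cmax (or 10 microM if unknown) down in half-log steps, 0.25% DMSO final.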

[1] = second compound 0.003 µM, first compound 0.0316 µM
[2] = second compound 0.003 µM, first compound 0.1 µM
[3] = second compound 0.003 µM, first compound 0.316 µM
[4] = second compound 0.003 µM, first compound 1 µM
[5] = second compound 0.003 µM, first compound 3.16 µM
[6] = second compound 0.003 µM, first compound 10 µM
[7] = second compound 0.00949 µM, first compound 0.0316 µM
[8] = second compound 0.00949 µM, first compound 0.1 µM
[9] = second compound 0.00949 µM, first compound 0.316 µM
[10] = second compound 0.00949 µM, first compound 1 µM
[11] = second compound 0.00949 µM, first compound 3.16 µM
[12] = second compound 0.00949 µM, first compound 10 µM
[13] = second compound 0.03 µM, first compound 0.0316 µM
[14] = second compound 0.03 µM, first compound 0.1 µM
[15] = second compound 0.03 µM, first compound 0.316 µM
[16] = second compound 0.03 µM, first compound 1 µM
[17] = second compound 0.03 µM, first compound 3.16 µM
[18] = second compound 0.03 µM, first compound 10 µM
[19] = second compound 0.0949 µM, first compound 0.0316 µM
[20] = second compound 0.0949 µM, first compound 0.1 µM
[21] = second compound 0.0949 µM, first compound 0.316 µM
[22] = second compound 0.0949 µM, first compound 1 µM
[23] = second compound 0.0949 µM, first compound 3.16 µM
[24] = second compound 0.0949 µM, first compound 10 µM
[25] = second compound 0.3 µM, first compound 0.0316 µM
[26] = second compound 0.3 µM, first compound 0.1 µM
[27] = second compound 0.3 µM, first compound 0.316 µM
[28] = second compound 0.3 µM, first compound 1 µM
[29] = second compound 0.3 µM, first compound 3.16 µM
[30] = second compound 0.3 µM, first compound 10 µM
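Note: spheroids exposed to compound for 7 days before viability readout.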
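Throughout, for viability, T/C: luminescent signal taken as surrogate of viable cell content; 100% = DMSO vehicle control viability and lower means growth inhibition.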

For `[2H]c1nc(C)nc([2H])c1-c1cc(NC[C@@H](C)c2cccc3c(C(=O)NC)ccnc23)ncn1` + CC[C@@]1(O)C(=O)OCc2c1cc1n(c2=O)Cc2cc3c(CN(C)C)c(O)ccc3nc2-1, the IC50 (second compound 0.003 µM) was > 10000 nM, the IC50 (second compound 0.00949 µM) was > 10000 nM and the IC50 (second compound 0.03 µM) was < 31.6 nM. For the same compound, the IC50 (second compound 0.0949 µM) was < 31.6 nM, the IC50 (second compound 0.3 µM) was < 31.6 nM and the viability, T/C [1] was 101%. The viability, T/C [2] was 109%, the viability, T/C [3] was 111% and the viability, T/C [4] was 107%. For the same compound, the viability, T/C [5] was 96.2%, the viability, T/C [6] was 105% and the viability, T/C [7] was 104%. It also gave a viability, T/C [8] of 108%, a viability, T/C [9] of 99.1% and a viability, T/C [10] of 106%. It also gave a viability, T/C [11] of 110%, a viability, T/C [12] of 109% and a viability, T/C [13] of 32%. It also gave a viability, T/C [14] of 31.6%, a viability, T/C [15] of 47.8% and a viability, T/C [16] of 10.1%. The viability, T/C [17] was 15.7%, the viability, T/C [18] was 4.42% and the viability, T/C [19] was 1.07%. For the same compound, the viability, T/C [20] was 0.66%, the viability, T/C [21] was 0.37% and the viability, T/C [22] was 0.51%. It also gave a viability, T/C [23] of 0.49%, a viability, T/C [24] of 0.51% and a viability, T/C [25] of 0.91%. It also gave a viability, T/C [26] of 0.5%, a viability, T/C [27] of 0.31% and a viability, T/C [28] of 0.64%. It also gave a viability, T/C [29] of 0.57% and a viability, T/C [30] of 0.57%.

`CC(C)n1c(=O)n(C)c2cnc3cc(F)c(-c4ccc(OCCCN5CCCCC5)nc4)cc3c21` + CC[C@@]1(O)C(=O)OCc2c1cc1n(c2=O)Cc2cc3c(CN(C)C)c(O)ccc3nc2-1 was tested, and the IC50 (second compound 0.003 µM) was < 31.6 nM, the IC50 (second compound 0.00949 µM) was < 31.6 nM and the IC50 (second compound 0.03 µM) was < 31.6 nM. For the same compound, the IC50 (second compound 0.0949 µM) was < 31.6 nM, the IC50 (second compound 0.3 µM) was < 31.6 nM and the viability, T/C [1] was 24.4%. It also gave a viability, T/C [2] of 25.2%, a viability, T/C [3] of 14.1% and a viability, T/C [4] of 18%. The viability, T/C [5] was 18.6%, the viability, T/C [6] was 0.6% and the viability, T/C [7] was 1.98%. It also gave a viability, T/C [8] of 1.84%, a viability, T/C [9] of 1.79% and a viability, T/C [10] of 1.85%. It also gave a viability, T/C [11] of 1.45%, a viability, T/C [12] of 0.25% and a viability, T/C [13] of 1.57%. For the same compound, the viability, T/C [14] was 1.36%, the viability, T/C [15] was 1.48% and the viability, T/C [16] was 1.56%. For the same compound, the viability, T/C [17] was 1.35%, the viability, T/C [18] was 0.27% and the viability, T/C [19] was 1.39%. For the same compound, the viability, T/C [20] was 1.29%, the viability, T/C [21] was 1.62% and the viability, T/C [22] was 1.24%. The viability, T/C [23] was 1.02%, the viability, T/C [24] was 0.43% and the viability, T/C [25] was 1.39%. The viability, T/C [26] was 1.68%, the viability, T/C [27] was 1.34% and the viability, T/C [28] was 1.48%. For the same compound, the viability, T/C [29] was 1.35% and the viability, T/C [30] was 0.58%.

Work on `O=C(c1cc(Cc2n[nH]c(=O)c3ccccc23)ccc1F)N1CCN(C(=O)C2CC2)CC1` + COc1cc2c(cc1O)CCNC21CSC2c3c(OC(C)=O)c(C)c4c(c3C(COC1=O)N1C(O)C3Cc5cc(C)c(OC)c(O)c5C(C21)N3C)OCO4 yielded an IC50 (second compound 30 pM) of 9180 nM, an IC50 (second compound 94.9 pM) of 10500 nM and an IC50 (second compound 0.0003 µM) of 1460 nM. For the same compound, the IC50 (second compound 0.000949 µM) was < 94.9 nM, the IC50 (second compound 0.003 µM) was < 94.9 nM and the viability, T/C (second compound 30 pM, first compound 0.0949 µM) was 112%. It also gave a viability, T/C (second compound 30 pM, first compound 0.3 µM) of 108%, a viability, T/C (second compound 30 pM, first compound 0.949 µM) of 99.5% and a viability, T/C (second compound 30 pM, first compound 3 µM) of 112%. For the same compound, the viability, T/C (second compound 30 pM, first compound 9.49 µM) was 48.3%, the viability, T/C (second compound 30 pM, first compound 30 µM) was 4.03% and the viability, T/C (second compound 94.9 pM, first compound 0.0949 µM) was 114%. For the same compound, the viability, T/C (second compound 94.9 pM, first compound 0.3 µM) was 114%, the viability, T/C (second compound 94.9 pM, first compound 0.949 µM) was 109% and the viability, T/C (second compound 94.9 pM, first compound 3 µM) was 109%. It also gave a viability, T/C (second compound 94.9 pM, first compound 9.49 µM) of 54.4%, a viability, T/C (second compound 94.9 pM, first compound 30 µM) of 2.51% and a viability, T/C (second compound 0.0003 µM, first compound 0.0949 µM) of 98.8%. The viability, T/C (second compound 0.0003 µM, first compound 0.3 µM) was 102%, the viability, T/C (second compound 0.0003 µM, first compound 0.949 µM) was 68% and the viability, T/C (second compound 0.0003 µM, first compound 3 µM) was 18.6%. For the same compound, the viability, T/C (second compound 0.0003 µM, first compound 9.49 µM) was 0.6%, the viability, T/C (second compound 0.0003 µM, first compound 30 µM) was 0.57% and the viability, T/C (second compound 0.000949 µM, first compound 0.0949 µM) was 0.38%. It also gave a viability, T/C (second compound 0.000949 µM, first compound 0.3 µM) of 0.39%, a viability, T/C (second compound 0.000949 µM, first compound 0.949 µM) of 0.26% and a viability, T/C (second compound 0.000949 µM, first compound 3 µM) of 0.18%. The viability, T/C (second compound 0.000949 µM, first compound 9.49 µM) was 0.07%, the viability, T/C (second compound 0.000949 µM, first compound 30 µM) was 0.23% and the viability, T/C (second compound 0.003 µM, first compound 0.0949 µM) was 0.32%. The viability, T/C (second compound 0.003 µM, first compound 0.3 µM) was 0.31%, the viability, T/C (second compound 0.003 µM, first compound 0.949 µM) was 0.3% and the viability, T/C (second compound 0.003 µM, first compound 3 µM) was 0.29%. It also gave a viability, T/C (second compound 0.003 µM, first compound 9.49 µM) of 0.28% and a viability, T/C (second compound 0.003 µM, first compound 30 µM) of 0.35%.
